Legend:
Assay in all cases: relative viability (nuclei count vs DMSO), 5 days (fraction); higher = more cells survive
Omipalisib + OSI-027 = compound: COc1ncc(-c2ccc3nccc(-c4ccnnc4)c3c2)cc1NS(=O)(=O)c1ccc(F)cc1F [Omipalisib] + COc1cccc2cc(-c3nc([C@H]4CC[C@H](C(=O)O)CC4)n4ncnc(N)c34)[nH]c12 [OSI-027] (partner 0.5 µM)
Method in brief: (§1)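 Values are medians from duplicate plates. Each reflects relative viability, defined as the nuclei count of treated wells over that of vehicle wells. Lung cancer cell lines in 1536-well plates were pin-tool dosed one day after seeding with one drug alone or with a fixed anchor-drug dose plus five library-drug doses (not always all listed) in √10 steps, then fixed, stained and imaged at 4× after 5 days.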

Omipalisib + Lapatinib = compound: COc1ncc(-c2ccc3nccc(-c4ccnnc4)c3c2)cc1NS(=O)(=O)c1ccc(F)cc1F [Omipalisib] + CS(=O)(=O)CCNCc1ccc(-c2ccc3ncnc(Nc4ccc(OCc5cccc(F)c5)c(Cl)c4)c3c2)o1 [Lapatinib] (partner 2 µM)
Method in brief: as §1

Omipalisib + Pemetrexed = compound: COc1ncc(-c2ccc3nccc(-c4ccnnc4)c3c2)cc1NS(=O)(=O)c1ccc(F)cc1F [Omipalisib] + Nc1nc2[nH]cc(CCc3ccc(C(=O)N[C@@H](CCC(=O)O)C(=O)O)cc3)c2c(=O)[nH]1 [Pemetrexed] (partner 0.2 µM)
Method in brief: as §1

Cell Line	relative viability (Omipalisib + OSI-027; first compound 0.0003 µM)	relative viability (Omipalisib + OSI-027; first compound 0.003 µM)	relative viability (Omipalisib + OSI-027; first compound 0.03 µM)	relative viability (Omipalisib + Lapatinib; first compound 0.0003 µM)	relative viability (Omipalisib + Lapatinib; first compound 0.003 µM)	relative viability (Omipalisib + Lapatinib; first compound 0.03 µM)	relative viability (Omipalisib + Pemetrexed; first compound 0.0003 µM)	relative viability (Omipalisib + Pemetrexed; first compound 0.003 µM)	relative viability (Omipalisib + Pemetrexed; first compound 0.03 µM)
201T	0.786	0.494	0.398	1.02	0.935	0.936	0.342	0.309	0.266
A-427	0.48	0.281	0.377	1.08	0.897	1.05	0.983	0.922	0.931
ABC-1	0.518	0.382	0.283	0.994	1.02	0.769			
BEN	0.311	0.271	0.291	0.566	0.444	0.364	0.694	0.581	0.569
CAL-12T	0.753	0.404	0.232	0.787	0.496	0.475	1.17	1.15	0.721
COR-L23	0.786	0.59	0.483	1.01	0.893	0.517	0.2	0.2	0.197
COR-L 105	0.767	0.549	0.328	0.37	0.334	0.313	0.995	1.11	0.942
ChaGo-K-1	0.557	0.374	0.421				0.273	0.254	0.255
EKVX	0.612	0.371	0.256	0.198	0.17	0.131	0.491	0.437	0.264
EMC-BAC-2	0.347	0.266	0.239	0.726	0.611	0.608	0.481	0.463	0.418
EPLC-272H	0.286	0.29	0.217	0.908	0.535	0.562	0.34	0.39	0.235
H3255	0.546	0.45	0.299	0.219	0.193	0.203	0.576	0.577	0.469
HARA	0.47	0.19	0.161	0.613	0.659	0.326	0.274	0.272	0.21
HCC-15	0.628	0.357	0.413	0.81	0.779	0.795	0.23	0.213	0.209
HCC-44	0.524	0.344	0.338	1.09	0.96	0.432	0.68	0.682	0.694
HCC-78	0.37	0.35	0.288	0.329	0.567	0.386	0.88	0.927	0.922
HCC-366	1.18	0.35	0.203	0.898	0.496	0.186	0.214	0.257	0.171
HCC-827	0.769	0.531	0.254	0.192	0.158	0.187	0.242	0.282	0.191
HOP-62	0.93	0.56	0.576	0.946	0.901	0.702	0.286	0.354	0.302
LC-2-ad	0.732	0.501	0.439	0.933	0.784	0.745	0.279	0.26	0.275
LCLC-97TM1	0.589	0.251	0.2	0.976	0.323	0.223	0.191	0.146	0.14
LCLC-103H	0.436	0.354	0.313				0.503	0.411	0.405
LK-2	0.212	0.13	0.173	0.698	0.502	0.306	0.253	0.211	0.16
LOU-NH91	0.705	0.58	0.503	0.708	0.53	0.511	0.408	0.431	0.448

Cell Line	relative viability (Omipalisib + OSI-027; first compound 0.0003 µM)	relative viability (Omipalisib + OSI-027; first compound 0.003 µM)	relative viability (Omipalisib + OSI-027; first compound 0.03 µM)	relative viability (Omipalisib + Lapatinib; first compound 0.0003 µM)	relative viability (Omipalisib + Lapatinib; first compound 0.003 µM)	relative viability (Omipalisib + Lapatinib; first compound 0.03 µM)	relative viability (Omipalisib + Pemetrexed; first compound 0.0003 µM)	relative viability (Omipalisib + Pemetrexed; first compound 0.003 µM)	relative viability (Omipalisib + Pemetrexed; first compound 0.03 µM)
LU99A	0.315	0.213	0.239	0.908	0.71	0.346	0.186	0.192	0.191
LXF-289	0.764	0.493	0.357	0.894	0.956	0.785	0.938	1.05	0.804
NCI-H23	0.62	0.365	0.321	0.911	0.862	0.501	0.692	0.44	0.374
NCI-H322M	0.562	0.481	0.412	0.53	0.553	0.415	0.584	0.585	0.452
NCI-H358	0.595	0.473	0.16	0.388	0.367	0.325	0.182	0.164	0.131
NCI-H441	0.642	0.35	0.26				0.294	0.283	0.237
NCI-H460	0.661	0.258	0.0847	0.594	0.845	0.151	0.0592	0.0512	0.0757
NCI-H520	0.235	0.214	0.203	0.778	0.581	0.22	0.58	0.433	0.184
NCI-H596	0.726	0.352	0.309	0.972	0.833	0.421	0.497	0.586	0.407
NCI-H647	0.547	0.408	0.264	0.932	0.782	0.272	0.189	0.158	0.183
NCI-H650	0.447	0.384	0.315	0.816	0.759	0.499	0.903	0.634	0.453
NCI-H661	0.661	0.582	0.344	0.366	0.294	0.196	0.925	0.9	0.761
NCI-H727	0.596	0.439	0.393	0.723	0.776	0.674			
NCI-H838	0.335	0.345	0.181	0.942	0.683	0.31	0.25	0.229	0.214
NCI-H1355	0.377	0.238	0.237	0.942	0.665	0.54	1.01	0.868	0.52
NCI-H1395	0.608	0.458	0.527	0.983	0.783	0.608	0.737	0.657	0.602
NCI-H1437	0.854	0.639	0.323	0.795	0.55	0.308	0.276	0.298	0.27
NCI-H1650	0.717	0.413	0.259	0.771	0.771	0.576	0.37	0.38	0.322
NCI-H1651	0.55	0.632	0.482	0.538	0.65	0.44	0.55	0.506	0.433
NCI-H1666	0.758	0.621	0.609	0.502	0.298	0.24	0.879	0.892	0.631
NCI-H1734	0.561	0.275	0.239	0.943	0.699	0.551	0.419	0.431	0.402
NCI-H1755	0.707	0.501	0.448	1.04	0.924	0.783	0.504	0.393	0.402
NCI-H1792	0.653	0.404	0.224	0.864	0.88	0.301	0.835	0.319	0.103
NCI-H1793	0.261	0.183	0.168	0.614	0.425	0.214	0.696	0.463	0.24

Cell Line	relative viability (Omipalisib + OSI-027; first compound 0.0003 µM)	relative viability (Omipalisib + OSI-027; first compound 0.003 µM)	relative viability (Omipalisib + OSI-027; first compound 0.03 µM)	relative viability (Omipalisib + Lapatinib; first compound 0.0003 µM)	relative viability (Omipalisib + Lapatinib; first compound 0.003 µM)	relative viability (Omipalisib + Lapatinib; first compound 0.03 µM)	relative viability (Omipalisib + Pemetrexed; first compound 0.0003 µM)	relative viability (Omipalisib + Pemetrexed; first compound 0.003 µM)	relative viability (Omipalisib + Pemetrexed; first compound 0.03 µM)
NCI-H1915	0.618	0.473	0.574	0.957	0.945	1	0.545	0.534	0.509
NCI-H1944	0.396	0.256	0.201	0.785	0.493	0.385	0.626	0.471	0.324
NCI-H1975	0.772	0.415	0.159	0.801	0.613	0.22	0.35	0.3	0.22
NCI-H1993	0.48	0.597	0.621	0.812	0.809	0.588	0.529	0.478	0.513
NCI-H2009	0.673	0.444	0.312	0.997	0.943	0.581	1.04	1.15	0.892
NCI-H2023	0.344	0.169	0.0988	0.684	0.374	0.179	0.208	0.197	0.139
NCI-H2085	0.776	0.349	0.315	0.838	0.571	0.382	0.986	0.855	0.406
NCI-H2087	0.532	0.309	0.251	1.34	0.955	0.747	0.646	0.558	0.597
NCI-H2126	0.71	0.488	0.411	0.759	0.46	0.374	0.652	0.537	0.38
NCI-H2170	0.656	0.475	0.485	0.221	0.257	0.257	0.26	0.262	0.253
NCI-H2228	0.506	0.19	0.139	0.993	0.697	0.291	0.351	0.306	0.221
NCI-H2342	0.569	0.516	0.467				0.69	0.568	0.451
NCI-H2347	0.345	0.262	0.959	0.855	0.902	0.81	0.45	0.484	0.445
NCI-H2405	0.661	0.359	0.296	0.949	0.6	0.303	1.12	0.718	0.444
NCI-H3122	0.863	0.376	0.216	1.03	1.05	0.786	0.214	0.192	0.202
PC-3 [JPC-3]	0.735	0.569	0.551	0.457	0.367	0.318	1.03	1.12	0.89
PC-14	0.761	0.529	0.435	0.308	0.228	0.162	0.151	0.155	0.161
RERF-LC-KJ	0.524	0.423	0.367	0.773	0.572	0.632	0.47	0.439	0.414
SK-LU-1	0.373	0.207	0.183	0.89	0.724	0.493	1.04	0.834	0.751
SK-MES-1	0.508	0.252	0.29	0.447	0.308	0.364	0.994	0.744	0.376
SW 900	0.573	0.495	0.306				0.508	0.456	0.487
SW 1573	0.397	0.371	0.225	0.905	0.786	0.638	0.568	0.549	0.366
UMC-11	0.376	0.349	0.48	0.836	0.531	0.738	0.717	0.63	0.648
